Assay results from US11236095B2 (priority 2007, dated 2022).

Assay: Human dose prediction (human PK parameter estimation)
Conditions: plasma, read-out: half-life, estimated (human) (converted)

NC1(C(=O)N[C@@H](CCO)c2ccc(Cl)cc2)CCN(c2ncnc3[nH]ccc23)CC1 [Example 9, (S)-4-amino-N-(1-(4-chlorophenyl)-3-hydroxypropyl)-1-(7H-pyrrolo[2,3-d]pyrimidin-4-yl)piperidine-4-carboxamide]
half-life: ~6 h
